Legend:
Experiment in all cases: cells
MPP-89 = format: functional, cell-based, Homo sapiens; details: Homo sapiens, MPP-89
Description: SANGER: Inhibition of human MPP-89 cell growth in a cell viability assay.

LC-2-ad = format: functional, cell-based, Homo sapiens; details: Homo sapiens, LC-2-ad
Description: SANGER: Inhibition of human LC-2-ad cell growth in a cell viability assay.

EW-16 = format: functional, cell-based, Homo sapiens; details: Homo sapiens, EW-16
Description: SANGER: Inhibition of human EW-16 cell growth in a cell viability assay.

HT = format: functional, cell-based, Homo sapiens; details: Homo sapiens, HT
Description: SANGER: Inhibition of human HT cell growth in a cell viability assay.

TE-9 = format: functional, cell-based, Homo sapiens; details: Homo sapiens, TE-9
Description: SANGER: Inhibition of human TE-9 cell growth in a cell viability assay.

EM-2 = format: functional, cell-based, Homo sapiens; details: Homo sapiens, EM-2
Description: SANGER: Inhibition of human EM-2 cell growth in a cell viability assay.

GAK = format: functional, cell-based, Homo sapiens; details: Homo sapiens, GAK
Description: SANGER: Inhibition of human GAK cell growth in a cell viability assay.

BV-173 = format: functional, cell-based, Homo sapiens; details: Homo sapiens, BV-173
Description: SANGER: Inhibition of human BV-173 cell growth in a cell viability assay.

ACN = format: functional, cell-based, Homo sapiens; details: Homo sapiens, ACN
Description: SANGER: Inhibition of human ACN cell growth in a cell viability assay.

KGN = format: functional, cell-based, Homo sapiens; details: Homo sapiens, KGN
Description: SANGER: Inhibition of human KGN cell growth in a cell viability assay.

NCI-H1395 = format: functional, cell-based, Homo sapiens; details: Homo sapiens, NCI-H1395
Description: SANGER: Inhibition of human NCI-H1395 cell growth in a cell viability assay.

IST-MEL1 = format: functional, cell-based, Homo sapiens; details: Homo sapiens, IST-MEL1
Description: SANGER: Inhibition of human IST-MEL1 cell growth in a cell viability assay.

D-502MG = format: functional, cell-based, Homo sapiens; details: Homo sapiens, D-502MG
Description: SANGER: Inhibition of human D-502MG cell growth in a cell viability assay.

NB5 = format: functional, cell-based, Homo sapiens; details: Homo sapiens, NB5
Description: SANGER: Inhibition of human NB5 cell growth in a cell viability assay.

A704 = format: functional, cell-based; details: Homo sapiens
Description: SANGER: Inhibition of human A704 cell growth in a cell viability assay.

TE-5 = format: functional, cell-based, Homo sapiens; details: Homo sapiens, TE-5
Description: SANGER: Inhibition of human TE-5 cell growth in a cell viability assay.

NCI-H226 = format: functional, cell-based, Homo sapiens; details: Homo sapiens, NCI-H226
Description: SANGER: Inhibition of human NCI-H226 cell growth in a cell viability assay.

LS-513 = format: functional, cell-based, Homo sapiens; details: Homo sapiens, LS-513
Description: SANGER: Inhibition of human LS-513 cell growth in a cell viability assay.

EW-11 = format: functional, cell-based, Homo sapiens; details: Homo sapiens, EW-11
Description: SANGER: Inhibition of human EW-11 cell growth in a cell viability assay.

HEL = format: functional, cell-based, Homo sapiens; details: Homo sapiens, HEL
Description: SANGER: Inhibition of human HEL cell growth in a cell viability assay.

HDLM-2 = format: functional, cell-based, Homo sapiens; details: Homo sapiens, HDLM-2
Description: SANGER: Inhibition of human HDLM-2 cell growth in a cell viability assay.

EW-18 = format: functional, cell-based, Homo sapiens; details: Homo sapiens, EW-18; read-out: IC50
Description: SANGER: Inhibition of human EW-18 cell growth in a cell viability assay.

KLE = format: functional, cell-based; details: Homo sapiens
Description: SANGER: Inhibition of human KLE cell growth in a cell viability assay.

KY821 = format: functional, cell-based, Homo sapiens; details: Homo sapiens, KY821
Description: SANGER: Inhibition of human KY821 cell growth in a cell viability assay.

NCI-H1623 = format: functional, cell-based; details: Homo sapiens
Description: SANGER: Inhibition of human NCI-H1623 cell growth in a cell viability assay.

A388 = format: functional, cell-based; details: Homo sapiens
Description: SANGER: Inhibition of human A388 cell growth in a cell viability assay.

DU-4475 = format: functional, cell-based, Homo sapiens; details: Homo sapiens, DU-4475
Description: SANGER: Inhibition of human DU-4475 cell growth in a cell viability assay.

ES7 = format: functional, cell-based, Homo sapiens; details: Homo sapiens, ES7
Description: SANGER: Inhibition of human ES7 cell growth in a cell viability assay.

DOHH-2 = format: functional, cell-based, Homo sapiens; details: Homo sapiens, DOHH-2
Description: SANGER: Inhibition of human DOHH-2 cell growth in a cell viability assay.

NCI-H1092 = format: functional, cell-based, Homo sapiens; details: Homo sapiens, NCI-H1092
Description: SANGER: Inhibition of human NCI-H1092 cell growth in a cell viability assay.

LAN-6 = format: functional, cell-based, Homo sapiens; details: Homo sapiens, LAN-6
Description: SANGER: Inhibition of human LAN-6 cell growth in a cell viability assay.

KINGS-1 = format: functional, cell-based, Homo sapiens; details: Homo sapiens, KINGS-1
Description: SANGER: Inhibition of human KINGS-1 cell growth in a cell viability assay.

SW982 = format: functional, cell-based; details: Homo sapiens
Description: SANGER: Inhibition of human SW982 cell growth in a cell viability assay.

NCI-H69 = format: functional, cell-based, Homo sapiens; details: Homo sapiens, NCI-H69
Description: SANGER: Inhibition of human NCI-H69 cell growth in a cell viability assay.

U-118-MG = format: functional, cell-based; details: Homo sapiens
Description: SANGER: Inhibition of human U-118-MG cell growth in a cell viability assay.

QIMR-WIL = format: functional, cell-based, Homo sapiens; details: Homo sapiens, QIMR-WIL
Description: SANGER: Inhibition of human QIMR-WIL cell growth in a cell viability assay.

IST-SL1 = format: functional, cell-based, Homo sapiens; details: Homo sapiens, IST-SL1
Description: SANGER: Inhibition of human IST-SL1 cell growth in a cell viability assay.

TE-8 = format: functional, cell-based, Homo sapiens; details: Homo sapiens, TE-8
Description: SANGER: Inhibition of human TE-8 cell growth in a cell viability assay.

MSTO-211H = format: functional, cell-based, Homo sapiens; details: Homo sapiens, MSTO-211H
Description: SANGER: Inhibition of human MSTO-211H cell growth in a cell viability assay.

NCI-H1770 = format: functional, cell-based, Homo sapiens; details: Homo sapiens, NCI-H1770
Description: SANGER: Inhibition of human NCI-H1770 cell growth in a cell viability assay.

OCUB-M = format: functional, cell-based; details: Homo sapiens
Description: SANGER: Inhibition of human OCUB-M cell growth in a cell viability assay.

no-10 = format: functional, cell-based, Homo sapiens; details: Homo sapiens
Description: SANGER: Inhibition of human no-10 cell growth in a cell viability assay.

D-247MG = format: functional, cell-based; details: Homo sapiens
Description: SANGER: Inhibition of human D-247MG cell growth in a cell viability assay.

SW872 = format: functional, cell-based, Homo sapiens; details: Homo sapiens, SW872
Description: SANGER: Inhibition of human SW872 cell growth in a cell viability assay.

DOK = format: functional, cell-based; details: Homo sapiens
Description: SANGER: Inhibition of human DOK cell growth in a cell viability assay.

NCI-H1581 = format: functional, cell-based, Homo sapiens; details: Homo sapiens, NCI-H1581
Description: SANGER: Inhibition of human NCI-H1581 cell growth in a cell viability assay.

OCI-AML2 = format: functional, cell-based, Homo sapiens; details: Homo sapiens, OCI-AML2
Description: SANGER: Inhibition of human OCI-AML2 cell growth in a cell viability assay.

no-11 = format: functional, cell-based, Homo sapiens; details: Homo sapiens
Description: SANGER: Inhibition of human no-11 cell growth in a cell viability assay.

BB30-HNC = format: functional, cell-based, Homo sapiens; details: Homo sapiens, BB30-HNC
Description: SANGER: Inhibition of human BB30-HNC cell growth in a cell viability assay.

SK-UT-1 = format: functional, cell-based, Homo sapiens; details: Homo sapiens, SK-UT-1
Description: SANGER: Inhibition of human SK-UT-1 cell growth in a cell viability assay.

NCI-H1838 = format: functional, cell-based, Homo sapiens; details: Homo sapiens, NCI-H1838
Description: SANGER: Inhibition of human NCI-H1838 cell growth in a cell viability assay.

MMAC-SF = format: functional, cell-based; details: Homo sapiens
Description: SANGER: Inhibition of human MMAC-SF cell growth in a cell viability assay.

## NC1(c2ccc(-c3nc4ccn5c(=O)[nH]nc5c4cc3-c3ccccc3)cc2)CCC1 [MK-2206]
MPP-89
  IC50: > 4 µM
LC-2-ad
  IC50: > 4 µM
EW-16
  IC50: 3.22 µM
HT
  IC50: 0.632 µM
TE-9
  IC50: > 4 µM
EM-2
  IC50: 0.979 µM
GAK
  IC50: > 4 µM
BV-173
  IC50: 1.81 µM
ACN
  IC50: > 4 µM
KGN
  IC50: > 4 µM
NCI-H1395
  IC50: 2.18 µM
IST-MEL1
  IC50: > 4 µM
D-502MG
  IC50: > 4 µM
NB5
  IC50: > 4 µM
A704
  IC50: > 4 µM
TE-5
  IC50: > 4 µM
NCI-H226
  IC50: > 4 µM
LS-513
  IC50: 2.33 µM
EW-11
  IC50: > 4 µM
HEL
  IC50: > 4 µM
HDLM-2
  IC50: > 4 µM
EW-18
  IC50: 2.42 µM
KLE
  IC50: > 4 µM
KY821
  IC50: > 4 µM
NCI-H1623
  IC50: 3.41 µM
A388
  IC50: > 4 µM
DU-4475
  IC50: > 4 µM
ES7
  IC50: > 4 µM
DOHH-2
  IC50: 1.28 µM
NCI-H1092
  IC50: > 4 µM
LAN-6
  IC50: > 4 µM
KINGS-1
  IC50: > 4 µM
SW982
  IC50: > 4 µM
NCI-H69
  IC50: > 4 µM
U-118-MG
  IC50: > 4 µM
QIMR-WIL
  IC50: 1.49 µM
IST-SL1
  IC50: > 4 µM
TE-8
  IC50: > 4 µM
MSTO-211H
  IC50: > 4 µM
NCI-H1770
  IC50: > 4 µM
OCUB-M
  IC50: 0.71 µM
no-10
  IC50: > 4 µM
D-247MG
  IC50: > 4 µM
SW872
  IC50: > 4 µM
DOK
  IC50: 3.23 µM
NCI-H1581
  IC50: > 4 µM
OCI-AML2
  IC50: > 4 µM
no-11
  IC50: > 4 µM
BB30-HNC
  IC50: > 4 µM

## O=C1NC(=O)c2c1c(-c1ccccc1Cl)cc1[nH]c3ccc(O)cc3c21
MPP-89
  IC50: > 2 µM
LC-2-ad
  IC50: > 2 µM
EW-16
  IC50: > 2 µM
HT
  IC50: > 2 µM
TE-9
  IC50: > 2 µM
EM-2
  IC50: 1.33 µM
GAK
  IC50: > 2 µM
BV-173
  IC50: 0.434 µM
ACN
  IC50: > 2 µM
KGN
  IC50: 1.68 µM
NCI-H1395
  IC50: > 2 µM
IST-MEL1
  IC50: > 2 µM
D-502MG
  IC50: > 2 µM
NB5
  IC50: > 2 µM
TE-5
  IC50: > 2 µM
NCI-H226
  IC50: > 2 µM
LS-513
  IC50: > 2 µM
EW-11
  IC50: > 2 µM
HEL
  IC50: 1.22 µM
SK-UT-1
  IC50: > 2 µM
HDLM-2
  IC50: > 2 µM
EW-18
  IC50: > 2 µM
KLE
  IC50: > 2 µM
KY821
  IC50: > 2 µM
NCI-H1623
  IC50: > 2 µM
A388
  IC50: > 2 µM
DU-4475
  IC50: > 2 µM
ES7
  IC50: > 2 µM
DOHH-2
  IC50: > 2 µM
NCI-H1092
  IC50: > 2 µM
LAN-6
  IC50: > 2 µM
KINGS-1
  IC50: > 2 µM
NCI-H1838
  IC50: > 2 µM
SW982
  IC50: > 2 µM
NCI-H69
  IC50: > 2 µM
MMAC-SF
  IC50: > 2 µM
U-118-MG
  IC50: > 2 µM
QIMR-WIL
  IC50: 0.135 µM
IST-SL1
  IC50: 1.46 µM
TE-8
  IC50: > 2 µM
MSTO-211H
  IC50: > 2 µM
NCI-H1770
  IC50: > 2 µM
OCUB-M
  IC50: > 2 µM
no-10
  IC50: > 2 µM
D-247MG
  IC50: > 2 µM
SW872
  IC50: > 2 µM
DOK
  IC50: 1.24 µM
NCI-H1581
  IC50: > 2 µM
OCI-AML2
  IC50: > 2 µM
no-11
  IC50: > 2 µM
BB30-HNC
  IC50: 1.36 µM

From ChEMBL document CHEMBL1201861, “Genomics of Drug Sensitity in Cancer screening data, Wellcome Trust Sanger Institute”
